Several values for one entry are separate records, joined by “and”; a condition that tells them apart may be missing. Equal values may be shown once.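 Interpolation was linear, between the two tested concentrations surrounding the appropriate level; five concentrations were tested over 48 hours in 96-well plates. Abbreviation: GI50, concentration required for 50% inhibition of growth. At the TGI there is no net growth.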
Tests used:
Test in all cases: DTP human tumour cell line panel, 48 h
[1] = system: CAKI-1 renal
[2] = system: DU-145 prostate
[3] = system: EKVX NSCLC
[4] = system: MOLT-4 leukemia
[5] = system: NCI-H460 lung
[6] = system: RPMI-8226 leukemia
[7] = system: SK-MEL-28 melanoma
[8] = system: SK-MEL-5 melanoma
[9] = system: SNB-19 CNS
[10] = system: U251 CNS

Structure (SMILES): O=C(O)CCC1CCC(c2cc(F)ccc2F)(S(=O)(=O)c2ccc(Cl)cc2)CC1 (configuration not stated)
- TGI [1]: 45.1 µM and > 100 µM
- GI50 [2]: 93.4 µM and > 100 µM
- TGI [2]: > 100 µM
- GI50 [3]: 15.1 µM and > 68.5 µM
- TGI [3]: > 100 µM
- GI50 [4]: 41.2 µM and > 59.7 µM
- TGI [4]: > 100 µM
- GI50 [5]: 42.5 µM and > 100 µM
- TGI [5]: > 100 µM
- GI50 [6]: 71.4 µM and > 100 µM
- TGI [6]: > 100 µM
- GI50 [7]: 25.5 µM and > 100 µM
- TGI [7]: > 100 µM
- GI50 [8]: 27.6 µM and > 100 µM
- TGI [8]: > 100 µM
- GI50 [9]: 55.1 µM and > 100 µM
- TGI [9]: > 100 µM
- GI50 [10]: 32.7 µM and > 100 µM
- TGI [10]: > 100 µM

Structure (SMILES): CC/C(=C(\CC)c1ccc(OCCN(CC)CC)cc1)c1ccc(OCCN(CC)CC)cc1
- GI50 [1]: 3.17 µM
- TGI [1]: 15.7 µM
- GI50 [2]: 6.05 µM
- TGI [2]: 19.2 µM
- GI50 [3]: 4.02 µM
- TGI [3]: 20.4 µM
- GI50 [4]: 3.62 µM
- TGI [4]: 18.2 µM
- GI50 [5]: 3.86 µM
- TGI [5]: 15.3 µM
- GI50 [6]: 1.42 µM
- TGI [6]: 4.63 µM
- GI50 [7]: 1.67 µM
- TGI [7]: 3.37 µM
- GI50 [8]: 1.48 µM
- TGI [8]: 2.86 µM
- GI50 [9]: 3.26 µM
- TGI [9]: 10.6 µM
- GI50 [10]: 1.87 µM
- TGI [10]: 8.99 µM

Structure (SMILES): O=C(/C=C/c1ccccc1)CCC1C(=O)NC(=O)NC1=O
- TGI [1]: > 100 µM
- TGI [2]: > 100 µM
- TGI [3]: > 100 µM
- TGI [4]: > 100 µM
- TGI [5]: > 100 µM
- TGI [6]: > 100 µM
- TGI [7]: > 100 µM
- TGI [8]: > 100 µM
- TGI [9]: > 100 µM
- TGI [10]: > 100 µM

Structure (SMILES): Cc1ccc(C(=O)NC2CCCCC2)cc1-c1ccc(C(=O)NCC2CC2)cc1
- GI50 [1]: 24.9 µM
- TGI [1]: > 25 µM
- GI50 [2]: > 25 µM
- TGI [2]: > 25 µM
- GI50 [3]: > 19.4 µM
- TGI [3]: > 25 µM
- GI50 [4]: > 25 µM
- TGI [4]: > 25 µM
- GI50 [5]: 16.8 µM
- TGI [5]: > 25 µM
- GI50 [6]: > 25 µM
- TGI [6]: > 25 µM
- GI50 [7]: > 25 µM
- TGI [7]: > 25 µM
- GI50 [8]: 19.9 µM
- TGI [8]: > 25 µM
- GI50 [9]: > 25 µM
- TGI [9]: > 25 µM
- GI50 [10]: > 25 µM
- TGI [10]: > 25 µM

Structure (SMILES): CO[C@H]1CC[C@@]2(C)C(=CC[C@H]3[C@@H]4C[C@H](O)C[C@@]4(C)CC[C@@H]32)C1
- GI50 [1]: 2.93 µM
- TGI [1]: 16.3 µM
- GI50 [2]: 4.37 µM
- TGI [2]: 15.2 µM
- GI50 [3]: 6.85 µM
- TGI [3]: 29 µM
- GI50 [4]: 4.92 µM
- TGI [4]: 30.6 µM
- GI50 [5]: 3.56 µM
- TGI [5]: 13.9 µM
- GI50 [6]: 3.68 µM
- TGI [6]: 54.2 µM
- GI50 [7]: 8.55 µM
- TGI [7]: 22.1 µM
- GI50 [8]: 3.23 µM
- TGI [8]: 13.1 µM
- GI50 [9]: 4.86 µM
- TGI [9]: 22.2 µM
- GI50 [10]: 3.54 µM
- TGI [10]: 15 µM

Structure (SMILES): CC1(C)C2CCC13C(=O)C1OC3(C2)C2C(=O)c3c(O)ccc(O)c3C(=O)C12 (configuration not stated)
- GI50 [1]: 4.31 µM
- TGI [1]: 18.1 µM
- GI50 [2]: 32.2 µM
- TGI [2]: 96.5 µM
- GI50 [3]: > 100 µM
- TGI [3]: > 100 µM
- GI50 [4]: 5.93 µM
- TGI [4]: > 46.6 µM
- GI50 [5]: 36.8 µM
- TGI [5]: > 100 µM
- GI50 [6]: 1.27 µM
- TGI [6]: 6.1 µM
- GI50 [7]: 36 µM
- TGI [7]: > 100 µM
- GI50 [8]: 13.4 µM
- TGI [8]: 41.5 µM
- GI50 [9]: 61.5 µM
- TGI [9]: > 100 µM
- GI50 [10]: 44.4 µM
- TGI [10]: 96.9 µM

Structure (SMILES): CC(=O)OCC1OC(S[As](C)C)C(OC(C)=O)C1OC(C)=O (configuration not stated)
- GI50 [1]: 0.0791 µM
- TGI [1]: 0.453 µM
- GI50 [2]: 0.217 µM
- TGI [2]: 0.836 µM
- GI50 [3]: 1.2 µM
- TGI [3]: 9.05 µM
- GI50 [4]: 0.177 µM
- TGI [4]: 0.765 µM
- GI50 [5]: 2.36 µM
- TGI [5]: 14.4 µM
- TGI [6]: 0.126 µM
- GI50 [7]: 0.446 µM
- TGI [7]: 2.73 µM
- GI50 [8]: 0.162 µM
- TGI [8]: 0.385 µM
- GI50 [9]: 9.06 µM
- TGI [9]: 29.5 µM
- GI50 [10]: 0.546 µM
- TGI [10]: 2.72 µM

Structure (SMILES): CCCC(=O)NNc1[nH]c(-c2ccc(OC)cc2)cc1C(=O)OCC
- GI50 [1]: 12.5 µM
- TGI [1]: 25.7 µM
- GI50 [2]: 21.7 µM
- TGI [2]: 45.6 µM
- GI50 [3]: 16.9 µM
- TGI [3]: 32.7 µM
- GI50 [4]: 6.52 µM
- TGI [4]: > 100 µM
- GI50 [5]: 46.6 µM
- TGI [5]: > 100 µM
- GI50 [6]: 16.8 µM
- TGI [6]: 86.2 µM
- GI50 [7]: 12.7 µM
- TGI [7]: 25.6 µM
- GI50 [8]: 18.5 µM
- TGI [8]: 33.2 µM
- GI50 [9]: 54.3 µM
- TGI [9]: > 100 µM
- GI50 [10]: 29.5 µM
- TGI [10]: > 100 µM

Structure (SMILES): Nc1nccc(Nc2ccc(S(N)(=O)=O)cc2)n1
- TGI [1]: > 100 µM
- TGI [2]: > 100 µM
- TGI [3]: > 100 µM
- TGI [4]: > 100 µM
- TGI [5]: > 100 µM
- TGI [6]: > 100 µM
- TGI [7]: > 100 µM
- TGI [8]: > 100 µM
- TGI [9]: > 100 µM
- TGI [10]: > 100 µM

Structure (SMILES): COC(=O)Nc1nc2ccc(Oc3ccc(NC(=O)Nc4cccc(Cl)c4)cc3)cc2[nH]1
- GI50 [1]: 1.74 µM
- TGI [1]: > 21.6 µM
- GI50 [2]: 1.58 µM
- TGI [2]: 8.44 µM
- GI50 [3]: 3.71 µM
- TGI [3]: > 25 µM
- GI50 [4]: 2.35 µM
- TGI [4]: 18.8 µM
- GI50 [5]: 0.802 µM
- TGI [5]: 3.86 µM
- GI50 [6]: 1.64 µM
- TGI [6]: > 25 µM
- GI50 [7]: 1.84 µM
- TGI [7]: 7.41 µM
- GI50 [8]: 0.492 µM
- TGI [8]: 3.66 µM
- GI50 [9]: 2.61 µM
- TGI [9]: > 25 µM
- GI50 [10]: 1.25 µM
- TGI [10]: 5.68 µM

Structure (SMILES): O=C1/C(=C/c2ccc(Cl)cc2)CN(C(=O)C(Cl)Cl)C/C1=C\c1ccc(Cl)cc1
- GI50 [1]: 0.264 µM
- TGI [1]: 0.865 µM
- GI50 [2]: 0.357 µM
- TGI [2]: 1.31 µM
- GI50 [3]: 0.292 µM
- TGI [3]: 1.03 µM
- GI50 [4]: 0.273 µM
- TGI [4]: > 28.1 µM
- GI50 [5]: 0.274 µM
- TGI [5]: 0.822 µM
- GI50 [6]: 0.0302 µM
- TGI [6]: 0.169 µM
- GI50 [7]: 0.227 µM
- TGI [7]: 0.517 µM
- GI50 [8]: 0.231 µM
- TGI [8]: 0.58 µM
- GI50 [9]: 0.177 µM
- TGI [9]: 0.576 µM
- GI50 [10]: 0.052 µM
- TGI [10]: 0.186 µM

Structure (SMILES): O=C(O)CC1(C(=O)O)CCCCC1
- TGI [1]: > 100 µM
- TGI [2]: > 100 µM
- TGI [3]: > 100 µM
- TGI [4]: > 100 µM
- TGI [5]: > 100 µM
- TGI [6]: > 100 µM
- TGI [7]: > 100 µM
- TGI [8]: > 100 µM
- TGI [9]: > 100 µM
- TGI [10]: > 100 µM

Structure (SMILES): O=C1/C(=C/C(Cl)=C/c2ccccc2)SC(=S)N1CCc1ccc(O)cc1
- GI50 [1]: 1.52 µM
- TGI [1]: 3.78 µM
- GI50 [2]: 1.6 µM
- TGI [2]: 3.28 µM
- GI50 [3]: 1.97 µM
- TGI [3]: 4.14 µM
- GI50 [4]: 2.2 µM
- TGI [4]: > 100 µM
- GI50 [5]: 2.08 µM
- TGI [5]: 4.72 µM
- GI50 [6]: 0.674 µM
- TGI [6]: 12.7 µM
- GI50 [7]: 1.83 µM
- TGI [7]: 3.93 µM
- GI50 [8]: 1.77 µM
- TGI [8]: 3.31 µM
- GI50 [9]: 1.51 µM
- TGI [9]: 2.95 µM
- GI50 [10]: 1.23 µM
- TGI [10]: 2.66 µM

Structure (SMILES): CCNc1nc(N2CC(=O)Nc3cc(OC)ccc32)c2ccccc2n1
- GI50 [1]: 0.0022 µM
- TGI [1]: > 100 µM
- GI50 [2]: 0.000435 µM
- TGI [2]: 12.1 µM
- TGI [3]: > 100 µM
- GI50 [4]: 0.000472 µM
- TGI [4]: > 100 µM
- GI50 [5]: 0.000365 µM
- TGI [5]: > 100 µM
- GI50 [6]: 0.000471 µM
- TGI [6]: 24.3 µM
- GI50 [7]: 1.7 µM
- TGI [7]: > 100 µM
- GI50 [8]: 0.000456 µM
- TGI [8]: 0.00337 µM
- GI50 [9]: 0.00067 µM
- TGI [9]: > 100 µM
- GI50 [10]: 0.000437 µM
- TGI [10]: > 100 µM

— PubChem BioAssay (NCI)
